{"source": "paper PMC6149898", "about": "“GPCR Modulation of Thieno[2,3-b]pyridine Anti-Proliferative Agents” (Molecules : A Journal of Synthetic Chemistry and Natural …, 2017)", "key": {"LE:K-562": {"tested_on": "LE:K-562", "parameters": "method as in earlier work", "settings": "NCI-60 panel; ref [4],[5],[6],[7]; cited from earlier work"}, "CNS:SF-539": {"tested_on": "CNS:SF-539", "parameters": "method as in earlier work", "settings": "NCI-60 panel; ref [4],[5],[6],[7]; cited from earlier work"}, "MRGPRX2": {"target": "MRGPRX2 (Homo sapiens, UniProt Q96LB1)", "assay": "gpcrMAX PathHunter beta-arrestin"}, "FPR1": {"target": "FPR1 (Homo sapiens, UniProt P21462)", "assay": "gpcrMAX PathHunter beta-arrestin"}, "GPR109A": {"target": "GPR109A (Homo sapiens, UniProt Q8TDS4)", "sequence (Q8TDS4 whole entry)": "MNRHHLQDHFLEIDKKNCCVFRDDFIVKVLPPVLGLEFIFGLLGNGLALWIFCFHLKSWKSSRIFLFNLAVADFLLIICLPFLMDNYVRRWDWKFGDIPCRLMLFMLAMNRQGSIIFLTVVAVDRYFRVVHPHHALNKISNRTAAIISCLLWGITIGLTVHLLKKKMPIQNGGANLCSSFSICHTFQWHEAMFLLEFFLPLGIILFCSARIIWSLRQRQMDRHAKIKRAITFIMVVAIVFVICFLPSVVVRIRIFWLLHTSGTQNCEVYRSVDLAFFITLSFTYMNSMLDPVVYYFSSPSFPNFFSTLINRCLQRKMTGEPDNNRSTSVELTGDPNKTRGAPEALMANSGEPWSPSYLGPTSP", "assay": "gpcrMAX PathHunter beta-arrestin"}, "TBXA2R": {"target": "TBXA2R (Homo sapiens, UniProt P21731)", "assay": "gpcrMAX PathHunter beta-arrestin"}, "CRHR1": {"target": "CRHR1 (Homo sapiens, UniProt P34998)", "sequence (P34998 24-415)": "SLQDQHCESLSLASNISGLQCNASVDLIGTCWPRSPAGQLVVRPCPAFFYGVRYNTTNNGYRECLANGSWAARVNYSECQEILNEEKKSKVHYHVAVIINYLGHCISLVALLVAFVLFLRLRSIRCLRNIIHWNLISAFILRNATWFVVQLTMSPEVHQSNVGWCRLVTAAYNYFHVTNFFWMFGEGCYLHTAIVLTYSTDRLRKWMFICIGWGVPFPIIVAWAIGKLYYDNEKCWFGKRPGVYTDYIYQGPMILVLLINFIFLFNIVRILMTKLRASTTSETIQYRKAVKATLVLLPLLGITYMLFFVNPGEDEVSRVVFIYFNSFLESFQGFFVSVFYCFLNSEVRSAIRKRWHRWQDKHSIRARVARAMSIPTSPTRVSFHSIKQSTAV", "assay": "gpcrMAX PathHunter beta-arrestin"}, "BDKRB2": {"target": "BDKRB2 (Homo sapiens, UniProt P30411)", "assay": "gpcrMAX PathHunter beta-arrestin"}, "CMKLR1": {"target": "CMKLR1 (Homo sapiens, UniProt Q99788)", "assay": "gpcrMAX PathHunter beta-arrestin"}, "C5L2": {"target": "C5L2 (Homo sapiens, UniProt Q9P296)", "assay": "gpcrMAX PathHunter beta-arrestin"}, "GPR1": {"target": "GPR1 (Homo sapiens, UniProt P46091)", "sequence (P46091 whole entry)": "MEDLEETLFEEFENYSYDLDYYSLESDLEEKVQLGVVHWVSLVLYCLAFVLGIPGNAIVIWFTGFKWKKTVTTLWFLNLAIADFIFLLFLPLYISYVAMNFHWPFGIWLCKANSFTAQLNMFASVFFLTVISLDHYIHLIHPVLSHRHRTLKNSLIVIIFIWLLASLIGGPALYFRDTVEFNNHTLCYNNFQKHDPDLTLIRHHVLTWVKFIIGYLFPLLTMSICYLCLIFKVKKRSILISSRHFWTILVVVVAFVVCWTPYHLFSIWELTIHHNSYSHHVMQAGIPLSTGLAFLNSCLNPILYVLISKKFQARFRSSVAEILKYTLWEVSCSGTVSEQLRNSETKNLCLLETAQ", "assay": "gpcrMAX PathHunter beta-arrestin"}, "CO:HCC-2998": {"tested_on": "CO:HCC-2998", "parameters": "method as in earlier work", "settings": "NCI-60 panel; ref [4],[5],[6],[7]; cited from earlier work"}, "BR:T-47D": {"tested_on": "BR:T-47D", "parameters": "method as in earlier work", "settings": "NCI-60 panel; ref [4],[5],[6],[7]; cited from earlier work"}, "ADCYAP1R1": {"target": "ADCYAP1R1 (Homo sapiens, UniProt P41586)", "sequence (P41586 21-468)": "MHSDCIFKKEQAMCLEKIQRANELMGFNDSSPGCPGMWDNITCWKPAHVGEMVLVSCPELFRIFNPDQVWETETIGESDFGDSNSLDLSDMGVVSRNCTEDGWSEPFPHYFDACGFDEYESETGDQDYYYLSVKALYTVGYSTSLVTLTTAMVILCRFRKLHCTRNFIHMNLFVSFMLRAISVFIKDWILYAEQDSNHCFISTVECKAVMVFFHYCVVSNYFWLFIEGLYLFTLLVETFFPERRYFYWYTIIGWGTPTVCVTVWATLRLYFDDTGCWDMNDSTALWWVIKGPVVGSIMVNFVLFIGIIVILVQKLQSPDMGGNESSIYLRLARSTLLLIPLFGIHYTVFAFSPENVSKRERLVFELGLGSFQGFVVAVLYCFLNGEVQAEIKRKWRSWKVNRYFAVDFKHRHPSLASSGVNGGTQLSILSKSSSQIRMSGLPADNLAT", "assay": "gpcrMAX PathHunter beta-arrestin"}, "OXER1": {"target": "OXER1 (Homo sapiens, UniProt Q8TDS5)", "assay": "gpcrMAX PathHunter beta-arrestin"}, "GIPR": {"target": "GIPR (Homo sapiens, UniProt P48546)", "assay": "gpcrMAX PathHunter beta-arrestin"}, "TSHR(L)": {"target": "TSHR(L) (Homo sapiens, UniProt P16473)", "assay": "gpcrMAX PathHunter beta-arrestin"}, "MRGPRX1": {"target": "MRGPRX1 (Homo sapiens, UniProt Q96LB2)", "assay": "gpcrMAX PathHunter beta-arrestin"}, "ADORA3": {"target": "ADORA3 (Homo sapiens, UniProt P0DMS8)", "assay": "gpcrMAX PathHunter beta-arrestin"}, "CHRM3": {"target": "CHRM3 (Homo sapiens, UniProt P20309)", "assay": "gpcrMAX PathHunter beta-arrestin"}, "MC3R": {"target": "MC3R (Homo sapiens, UniProt P41968)", "assay": "gpcrMAX PathHunter beta-arrestin"}, "HTR1B": {"target": "T1, HTR1B (Homo sapiens, UniProt P28222)", "T1 construct": "ProLink (beta-galactosidase enzyme-donor fragment)", "T1 sequence (P28222 whole entry, the tested form may be a part)": "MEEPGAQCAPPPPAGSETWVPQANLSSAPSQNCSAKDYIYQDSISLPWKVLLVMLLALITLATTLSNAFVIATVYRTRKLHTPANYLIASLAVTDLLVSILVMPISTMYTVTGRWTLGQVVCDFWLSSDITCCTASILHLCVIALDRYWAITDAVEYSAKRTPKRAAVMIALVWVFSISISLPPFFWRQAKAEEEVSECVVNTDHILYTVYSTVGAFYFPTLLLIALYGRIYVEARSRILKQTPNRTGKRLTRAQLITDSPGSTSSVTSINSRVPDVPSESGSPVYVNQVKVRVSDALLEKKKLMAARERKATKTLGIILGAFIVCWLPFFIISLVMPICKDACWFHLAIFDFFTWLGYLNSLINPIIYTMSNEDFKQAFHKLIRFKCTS", "assay": "gpcrMAX PathHunter beta-arrestin", "type": "cell-based", "protocol": "(§1) complementation (EFC) technology. […]\n(§2) challenge at the EC80 concentration. […]\n(§3) minutes. Vehicle concentration was 1%. […]\n(§4) room temperature for 90 or 180 minutes. […]\n(§5) instrument for chemiluminescent signal detection.\n(§6) 11 GPCR MAX dose response, Agonist and Antagonist\n(§7) Targets (60 Data points each): i) CALCRL‐RAMP3‐Antagonist\n(§8) 180 minutes. Vehicle concentration was 1%. […]\n(§9) hours. Vehicle concentration was 1%. Extended incubation is typically required to observe an inverse agonist response in the PathHunter arrestin assay.\n(§10) Positive Allosteric Modulation Format\n(§11) 1. For allosteric determination, cells were pre-incubated with sample followed by agonist induction at the EC20 concentration. […]\n(§12) temperature for 90 or 180 minutes.\n(§13) Antagonist/Negative Allosteric Modulation Format\n(§14) 1. Compound activity was analyzed using CBIS data analysis suite (ChemInnovation, CA)."}, "NPSR1B": {"target": "T2, NPSR1B (Homo sapiens, UniProt Q6W5P4)", "T2 construct": "ProLink (beta-galactosidase enzyme-donor fragment)", "T2 sequence (Q6W5P4 1-377 isoform Q6W5P4-4)": "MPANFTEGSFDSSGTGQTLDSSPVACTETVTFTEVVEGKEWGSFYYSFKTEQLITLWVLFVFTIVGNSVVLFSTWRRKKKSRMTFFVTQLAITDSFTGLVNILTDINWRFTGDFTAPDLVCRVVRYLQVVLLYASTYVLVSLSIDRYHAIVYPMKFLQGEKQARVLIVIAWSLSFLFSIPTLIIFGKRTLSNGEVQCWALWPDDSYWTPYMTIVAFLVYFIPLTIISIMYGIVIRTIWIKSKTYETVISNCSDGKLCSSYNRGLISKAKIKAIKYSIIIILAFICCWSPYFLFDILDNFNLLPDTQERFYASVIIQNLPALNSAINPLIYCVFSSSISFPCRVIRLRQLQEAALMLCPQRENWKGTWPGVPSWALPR", "assay": "gpcrMAX PathHunter beta-arrestin", "type": "cell-based", "protocol": "as §1, §2, §3, §4, §5, §6, §7, §8, §9, §10, §11, §12, §13, §14"}, "GPR35": {"target": "T3, GPR35 (Homo sapiens, UniProt Q9HC97)", "T3 construct": "ProLink (beta-galactosidase enzyme-donor fragment)", "T3 sequence (Q9HC97 whole entry, the tested form may be a part)": "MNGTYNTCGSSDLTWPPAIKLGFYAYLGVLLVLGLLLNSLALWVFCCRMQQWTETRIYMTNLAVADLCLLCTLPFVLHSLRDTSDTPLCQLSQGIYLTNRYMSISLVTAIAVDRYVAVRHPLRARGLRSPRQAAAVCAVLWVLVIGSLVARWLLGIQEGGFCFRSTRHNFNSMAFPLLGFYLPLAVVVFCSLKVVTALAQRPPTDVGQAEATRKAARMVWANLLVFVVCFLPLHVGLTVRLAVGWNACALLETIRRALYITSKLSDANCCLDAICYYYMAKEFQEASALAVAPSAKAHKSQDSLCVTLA", "assay": "gpcrMAX PathHunter beta-arrestin", "type": "cell-based", "protocol": "as §1, §2, §3, §4, §5, §6, §7, §8, §9, §10, §11, §12, §13, §14"}, "PRLHR": {"target": "T4, PRLHR (Homo sapiens, UniProt P49683)", "T4 construct": "ProLink (beta-galactosidase enzyme-donor fragment)", "T4 sequence (P49683 whole entry, the tested form may be a part)": "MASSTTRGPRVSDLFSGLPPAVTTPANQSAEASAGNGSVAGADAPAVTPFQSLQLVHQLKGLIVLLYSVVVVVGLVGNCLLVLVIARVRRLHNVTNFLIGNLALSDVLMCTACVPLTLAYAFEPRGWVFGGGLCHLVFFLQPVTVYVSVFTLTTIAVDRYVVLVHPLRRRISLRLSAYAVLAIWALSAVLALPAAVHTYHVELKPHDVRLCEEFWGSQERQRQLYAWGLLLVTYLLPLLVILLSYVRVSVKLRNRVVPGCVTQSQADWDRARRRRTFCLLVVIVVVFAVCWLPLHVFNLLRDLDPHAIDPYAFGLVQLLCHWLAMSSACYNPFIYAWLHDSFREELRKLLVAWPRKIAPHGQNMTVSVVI", "assay": "gpcrMAX PathHunter beta-arrestin", "type": "cell-based", "protocol": "as §1, §2, §3, §4, §5, §6, §7, §8, §9, §10, §11, §12, §13, §14"}, "CXCR4": {"target": "T5, CXCR4 (Homo sapiens, UniProt P61073)", "T5 construct": "ProLink (beta-galactosidase enzyme-donor fragment)", "T5 sequence (P61073 whole entry, the tested form may be a part)": "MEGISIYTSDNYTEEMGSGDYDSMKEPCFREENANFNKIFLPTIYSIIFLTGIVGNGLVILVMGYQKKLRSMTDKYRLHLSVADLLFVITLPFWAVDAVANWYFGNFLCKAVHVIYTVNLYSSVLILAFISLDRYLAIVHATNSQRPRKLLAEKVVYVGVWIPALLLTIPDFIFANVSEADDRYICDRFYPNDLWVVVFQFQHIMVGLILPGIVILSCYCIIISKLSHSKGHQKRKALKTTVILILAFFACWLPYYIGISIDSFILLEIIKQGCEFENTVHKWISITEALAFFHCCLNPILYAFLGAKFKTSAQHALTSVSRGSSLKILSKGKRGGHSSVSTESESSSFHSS", "assay": "gpcrMAX PathHunter beta-arrestin", "type": "cell-based", "protocol": "as §1, §2, §3, §4, §5, §6, §7, §8, §9, §10, §11, §12, §13, §14"}, "CALCRL-RAMP3": {"target": "T6, CALCRL-RAMP3 (Homo sapiens, UniProt O60896+Q16602)", "T6 construct": "ProLink (beta-galactosidase enzyme-donor fragment)", "T6 sequence (Q16602 23-461)": "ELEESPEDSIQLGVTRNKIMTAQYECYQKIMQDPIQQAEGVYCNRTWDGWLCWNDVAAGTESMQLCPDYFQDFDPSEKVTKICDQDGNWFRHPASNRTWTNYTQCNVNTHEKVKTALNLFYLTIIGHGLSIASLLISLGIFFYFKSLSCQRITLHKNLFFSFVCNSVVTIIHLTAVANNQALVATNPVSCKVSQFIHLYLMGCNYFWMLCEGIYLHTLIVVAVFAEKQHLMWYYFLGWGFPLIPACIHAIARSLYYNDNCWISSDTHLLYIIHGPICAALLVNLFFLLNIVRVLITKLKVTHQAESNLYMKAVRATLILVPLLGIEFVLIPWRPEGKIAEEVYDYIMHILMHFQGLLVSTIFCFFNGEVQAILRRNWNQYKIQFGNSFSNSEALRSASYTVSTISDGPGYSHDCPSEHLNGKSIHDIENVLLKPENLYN", "T6 sequence (O60896 24-148 partner)": "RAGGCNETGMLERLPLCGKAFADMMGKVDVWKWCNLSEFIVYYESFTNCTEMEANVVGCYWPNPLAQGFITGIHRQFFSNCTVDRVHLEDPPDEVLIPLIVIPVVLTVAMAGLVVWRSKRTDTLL", "assay": "gpcrMAX PathHunter beta-arrestin", "type": "cell-based", "protocol": "as §1, §2, §3, §4, §5, §6, §7, §8, §9, §10, §11, §12, §13, §14"}, "CCR8": {"target": "CCR8 (Homo sapiens, UniProt P51685)", "sequence (P51685 whole entry)": "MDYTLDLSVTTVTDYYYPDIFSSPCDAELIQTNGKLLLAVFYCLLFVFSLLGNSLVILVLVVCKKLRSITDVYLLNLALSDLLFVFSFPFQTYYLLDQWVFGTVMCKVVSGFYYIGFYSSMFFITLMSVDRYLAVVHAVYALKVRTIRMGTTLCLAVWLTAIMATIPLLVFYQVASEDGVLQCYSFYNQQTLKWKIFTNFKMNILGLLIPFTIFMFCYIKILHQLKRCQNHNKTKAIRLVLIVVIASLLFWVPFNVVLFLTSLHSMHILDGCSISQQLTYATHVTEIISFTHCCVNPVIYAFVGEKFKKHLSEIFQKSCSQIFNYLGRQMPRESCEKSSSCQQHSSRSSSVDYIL", "assay": "gpcrMAX PathHunter beta-arrestin"}, "CHRM5": {"target": "CHRM5 (Homo sapiens, UniProt P08912)", "assay": "gpcrMAX PathHunter beta-arrestin"}, "OPRL1": {"target": "OPRL1 (Homo sapiens, UniProt P41146)", "assay": "gpcrMAX PathHunter beta-arrestin"}, "NPY1R": {"target": "NPY1R (Homo sapiens, UniProt P25929)", "sequence (P25929 whole entry)": "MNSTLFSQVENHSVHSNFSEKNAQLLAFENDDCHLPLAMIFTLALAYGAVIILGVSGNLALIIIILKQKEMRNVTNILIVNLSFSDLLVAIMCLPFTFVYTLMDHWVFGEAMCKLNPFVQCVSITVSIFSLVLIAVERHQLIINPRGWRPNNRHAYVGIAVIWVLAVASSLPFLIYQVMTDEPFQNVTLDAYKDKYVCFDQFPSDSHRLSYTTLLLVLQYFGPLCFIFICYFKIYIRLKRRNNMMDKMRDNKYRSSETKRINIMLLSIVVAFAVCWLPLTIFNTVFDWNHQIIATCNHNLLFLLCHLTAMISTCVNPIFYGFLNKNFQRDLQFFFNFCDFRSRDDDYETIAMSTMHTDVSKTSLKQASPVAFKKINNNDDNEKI", "assay": "gpcrMAX PathHunter beta-arrestin"}, "CHRM2": {"target": "CHRM2 (Homo sapiens, UniProt P08172)", "assay": "gpcrMAX PathHunter beta-arrestin"}, "OV:OVCAR-3": {"tested_on": "OV:OVCAR-3", "parameters": "method as in earlier work", "settings": "NCI-60 panel; ref [4],[5],[6],[7]; cited from earlier work"}, "HTR2A": {"target": "HTR2A (Homo sapiens, UniProt P28223)", "assay": "gpcrMAX PathHunter beta-arrestin"}, "[1]": {"settings": "antagonist format, dose response"}}, "data": [{"molecule": "Cc1c(Cl)cccc1NC(=O)c1sc2nc3c(cc2c1N)C(=O)CCC3", "note": "[Compound 1]", "values": [{"measurement": "GI50", "setting": "LE:K-562", "value": 0.0375, "unit": "µM"}, {"measurement": "GI50", "setting": "CNS:SF-539", "value": 0.0382, "unit": "µM"}, {"measurement": "inhibition at 10 µM", "setting": "MRGPRX2", "value": -1, "unit": "%"}, {"measurement": "inhibition at 10 µM", "setting": "FPR1", "value": 16, "unit": "%"}, {"measurement": "inhibition at 10 µM", "setting": "GPR109A", "value": -13, "unit": "%"}, {"measurement": "inhibition at 10 µM", "setting": "TBXA2R", "value": -1, "unit": "%"}, {"measurement": "inhibition at 10 µM", "setting": "CRHR1", "value": 20, "unit": "%"}, {"measurement": "inhibition at 10 µM", "setting": "BDKRB2", "value": 1, "unit": "%"}, {"measurement": "inhibition at 10 µM", "setting": "CMKLR1", "value": 14, "unit": "%"}, {"measurement": "inhibition at 10 µM", "setting": "C5L2", "value": -20, "unit": "%"}, {"measurement": "inhibition at 10 µM", "setting": "GPR1", "value": 7, "unit": "%"}, {"measurement": "GI50", "setting": "CO:HCC-2998", "value": 0.213, "unit": "µM"}, {"measurement": "GI50", "setting": "BR:T-47D", "value": 0.055, "unit": "µM"}, {"measurement": "inhibition at 10 µM", "setting": "ADCYAP1R1", "value": 23, "unit": "%"}, {"measurement": "inhibition at 10 µM", "setting": "OXER1", "value": -1, "unit": "%"}, {"measurement": "inhibition at 10 µM", "setting": "GIPR", "value": 2, "unit": "%"}, {"measurement": "inhibition at 10 µM", "setting": "TSHR(L)", "value": -24, "unit": "%"}, {"measurement": "inhibition at 10 µM", "setting": "MRGPRX1", "value": 6, "unit": "%"}, {"measurement": "inhibition at 10 µM", "setting": "ADORA3", "value": 25, "unit": "%"}, {"measurement": "inhibition at 10 µM", "setting": "CHRM3", "value": 14, "unit": "%"}, {"measurement": "inhibition at 10 µM", "setting": "MC3R", "value": 2, "unit": "%"}, {"measurement": "IC50", "setting": "HTR1B; [1]", "value": "> 50", "unit": "µM"}, {"measurement": "inhibition at 10 µM", "setting": "HTR1B; antagonist mode, 10 µM", "value": 42, "unit": "%"}, {"measurement": "IC50", "setting": "NPSR1B; [1]", "value": 1, "unit": "µM"}, {"measurement": "inhibition at 10 µM", "setting": "NPSR1B; antagonist mode, 10 µM", "value": 59, "unit": "%"}, {"measurement": "EC50", "setting": "GPR35; agonist format, dose response", "value": 7.5, "unit": "µM"}, {"measurement": "inhibition at 10 µM", "setting": "GPR35; antagonist mode, 10 µM", "value": -12, "unit": "%"}, {"measurement": "IC50", "setting": "PRLHR; [1]", "value": 9.3, "unit": "µM"}, {"measurement": "inhibition at 10 µM", "setting": "PRLHR; antagonist mode, 10 µM", "value": 44, "unit": "%"}, {"measurement": "IC50", "setting": "CXCR4; [1]", "value": 6.9, "unit": "µM"}, {"measurement": "inhibition at 10 µM", "setting": "CXCR4; antagonist mode, 10 µM", "value": 39, "unit": "%"}, {"measurement": "IC50", "setting": "CALCRL-RAMP3; [1]", "value": 11.9, "unit": "µM"}, {"measurement": "inhibition at 10 µM", "setting": "CALCRL-RAMP3; antagonist mode, 10 µM", "value": 63, "unit": "%"}, {"measurement": "inhibition at 10 µM", "setting": "CCR8", "value": -7, "unit": "%"}, {"measurement": "inhibition at 10 µM", "setting": "CHRM5", "value": 8, "unit": "%"}, {"measurement": "inhibition at 10 µM", "setting": "OPRL1", "value": -7, "unit": "%"}, {"measurement": "inhibition at 10 µM", "setting": "NPY1R", "value": 11, "unit": "%"}, {"measurement": "inhibition at 10 µM", "setting": "CHRM2", "value": -14, "unit": "%"}, {"measurement": "GI50", "setting": "OV:OVCAR-3", "value": 0.0489, "unit": "µM"}, {"measurement": "inhibition at 10 µM", "setting": "HTR2A", "value": -1, "unit": "%"}]}]}
